For test [1], the system named is NB-4. The experiment in a line: Antiproliferative activity against human NB4 cells after 48 hrs. Type of test: functional, cell-based. The conditions noted are these: NB-4, 48 h.
The test system of test [2] is NB-4. The experiment in a line: Induction of apoptosis in human NB4 cells assessed as viable cells at 2.5 uM after 48 hrs using annexin V-fluos/propidium iodide staining by cytofluorimetric analysis. The conditions noted are these: NB-4, 48 h, read-out: Activity. Format: functional.
Test [3] deals with NB-4. The experiment in a line: Induction of apoptosis in human NB4 cells assessed as early apoptotic cells at 2.5 uM after 48 hrs using annexin V-fluos/propidium iodide staining by cytofluorimetric analysis. Format: functional.
The test system of test [4] is NB-4. The experiment in a line: Induction of apoptosis in human NB4 cells assessed as necrotic cells at 2.5 uM after 48 hrs using annexin V-fluos/propidium iodide staining by cytofluorimetric analysis. Format: functional.
In test [5] the test system is NB-4. The experiment in a line: Induction of apoptosis in human NB4 cells assessed as late apoptotic cells at 2.5 uM after 48 hrs using annexin V-fluos/propidium iodide staining by cytofluorimetric analysis. Type of test: functional.
Test [6] deals with NB-4. The experiment in a line: Induction of apoptosis in human NB4 cells assessed as late apoptotic cells at 5 uM after 48 hrs using annexin V-fluos/propidium iodide staining by cytofluorimetric analysis. Type of test: functional.
In test [7] the test system is NB-4. The experiment in a line: Induction of apoptosis in human NB4 cells assessed as necrotic cells at 5 uM after 48 hrs using annexin V-fluos/propidium iodide staining by cytofluorimetric analysis. Type of test: functional.
Test [8] relates to NB-4. The experiment in a line: Induction of apoptosis in human NB4 cells assessed as early apoptotic cells at 5 uM after 48 hrs using annexin V-fluos/propidium iodide staining by cytofluorimetric analysis. Format: functional.
Test [9] concerns NB-4. The experiment in a line: Induction of apoptosis in human NB4 cells assessed as viable cells at 5 uM after 48 hrs using annexin V-fluos/propidium iodide staining by cytofluorimetric analysis. Format: functional. The conditions noted are these: NB-4, 48 h, read-out: Activity.

The results in this text go back to ChEMBL document CHEMBL1141688, “Design, synthesis and preliminary biological evaluation of new hydroxamate histone deacetylase inhibitors as potential antileukemic agents” (Bioorg Med Chem Lett, 2008).

`CC1N=C(c2ccccc2)c2cc(NC(=O)CCCCCCC(=O)NO)ccc2N(C)C1=O` (racemic): inhibition in the test with NB-4 [1] was half-maximal at 4.09 µM (IC50).

In the case of `CN1C(=O)CN=C(c2ccccc2)c2cc(C#CCCCC(=O)NO)ccc21`, 0.62 µM corresponded to half-maximal inhibition in the test on NB-4 [1] (IC50).

Regarding `C[C@H]1N=C(c2ccccc2)c2cc(NC(=O)CCCCCCC(=O)NO)ccc2N(C)C1=O`, the half-inhibitory concentration (IC50) – broadly, the concentration that gives 50% inhibition – in the test on NB-4 [1] was determined as 3.71 µM.

On to `C[C@@H]1N=C(c2ccccc2)c2cc(C#CCCCC(=O)NO)ccc2N(C)C1=O`, for which, in the test on NB-4 [2], the viability at 2.5 µM was 12%. The compound further registered an IC50 in the test on NB-4 [1] of 0.61 µM. The Activity turned out to be 30.8% with NB-4 [3], 0.6% in the test on NB-4 [4] and 56.6% with NB-4 [5].

On to `C[C@H]1N=C(c2ccccc2)c2cc(C#CCCCC(=O)NO)ccc2N(C)C1=O`, for which, in the test with NB-4 [2], the viability at 2.5 µM worked out at 89.8%. In the test on NB-4 [1], this compound registered a half-maximal inhibitory concentration (IC50) of 4.8 µM. Besides, the Activity is on record as 1.5% with NB-4 [3], 0.4% in the test with NB-4 [4] and 8.3% in the test with NB-4 [5].

`CN1C(=O)CN=C(c2ccccc2)c2cc(NC(=O)CCCCCCC(=O)NO)ccc21`: the IC50 in the test with NB-4 [1] is 2.5 µM.

Regarding `CC1N=C(c2ccccc2)c2cc(C#CCCCC(=O)NO)ccc2N(C)C1=O` (racemic), the Activity in the test on NB-4 [6] is given as 54.1%; with NB-4 [7], 1.7%; in the test on NB-4 [8], 35.6%. For the same compound, in the test with NB-4 [1], half-maximal inhibition (IC50) required 1.26 µM. Further, in the test with NB-4 [9], the viability at 5 µM amounted to 8.6%.

Take `C[C@@H]1N=C(c2ccccc2)c2cc(NC(=O)CCCCCCC(=O)NO)ccc2N(C)C1=O`: the IC50 in the test on NB-4 [1] turned out to be 5.83 µM.
